Drawing on US9539252B2, “Piperazine-substituted benzothiophene derivatives as antipsychotic agents” (OTSUKA PHARMACEUTICAL CO., LTD., priority 2011, dated 2017), this text covers solubility for 30 compounds.

One data set is described as follows: Solubility in oil (sesame oil, benzyl benzoate), visual observation. As to conditions: benzyl benzoate, oil or lipid, thermodynamic from solid.
Procedure: Each of the Example compounds was examined for the solubility in oil (sesame oil, benzyl benzoate).
For the specific gravity of an oil, the following values were applied. • sesame oil (specific gravity: 0.914-0.921) • benzyl benzoate (specific gravity: 1.123) • (Method)
Example compound is measured in a microtube and an oil (sesame oil, or, benzyl benzoate) in an amount to make the concentration 10 mg/0.1 ml is added. After stirring, the solubility is evaluated by visual observation. When the compound is not dissolved, the mixture is heated, and the solubility is evaluated after cooling.
Consider `O=C(OCN1C(=O)CCc2ccc(OCCCCN3CCN(c4cccc5sccc45)CC3)cc21)N1CCCCC1` [Example 9, piperidine-1-carboxylic acid 7-[4-(4-benzo[b]thiophen-4-ylpiperazin-1-yl)butoxy]-2-oxo-3,4-dihydro-2H-quinolin-1-ylmethyl ester], for which the solubility is > 100 mg/mL.
On the same count and under the same terms, with `O=C(OCn1c(=O)ccc2ccc(OCCCCN3CCN(c4cccc5sccc45)CC3)cc21)N1CCCCC1` [Example 10, piperidine-1-carboxylic acid 7-[4-(4-benzo[b]thiophen-4-ylpiperazin-1-yl)butoxy]-2-oxo-2H-quinolin-1-ylmethyl ester] the figure was > 100 mg/mL; with `O=C(OCN1C(=O)CCc2ccc(OCCCCN3CCN(c4cccc5sccc45)CC3)cc21)c1ccccc1` [Example 11, benzoic acid 7-[4-(4-benzo[b]thiophen-4-ylpiperazin-1-yl)butoxy]-2-oxo-3,4-dihydro-2H-quinolin-1-ylmethyl ester], > 100 mg/mL; with `O=C(OCn1c(=O)ccc2ccc(OCCCCN3CCN(c4cccc5sccc45)CC3)cc21)c1ccccc1` [Example 12, benzoic acid 7-[4-(4-benzo[o]thiophen-4-ylpiperazin-1-yl)butoxy]-2-oxo-2H-quinolin-1-ylmethyl ester], > 100 mg/mL.
Still for that read-out and setting: in the case of `O=C(OCN1C(=O)CCc2ccc(OCCCCN3CCN(c4cccc5sccc45)CC3)cc21)C1CCCC1` [Example 13, cyclopentanecarboxylic acid 7-[4-(4-benzo[b]thiophen-4-ylpiperazin-1-yl)butoxy]-2-oxo-3,4-dihydro-2H-quinolin-1-ylmethyl ester] it was > 100 mg/mL; in that of `O=C(OCN1C(=O)CCc2ccc(OCCCCN3CCN(c4cccc5sccc45)CC3)cc21)C1CCCCC1` [Example 14, cyclohexanecarboxylic acid 7-[4-(4-benzo[b]thiophen-4-ylpiperazin-1-yl)butoxy]-2-oxo-3,4-dihydro-2H-quinolin-1-ylmethyl ester], > 100 mg/mL; in that of `CC(C)(C)C(=O)OCN1C(=O)CCc2ccc(OCCCCN3CCN(c4cccc5sccc45)CC3)cc21` [Example 15, 2,2-dimethylpropionic acid 7-[4-(4-benzo[b]thiophen-4-ylpiperazin-1-yl)butoxy]-2-oxo-3,4-dihydro-2H-quinolin-1-ylmethyl ester], > 100 mg/mL.
The same measure, in the same setting: with `CCCCN(C)C(=O)OCN1C(=O)CCc2ccc(OCCCCN3CCN(c4cccc5sccc45)CC3)cc21` [Example 16, N-butyl-N-methylcarbamic acid 7-[4-(4-benzo[b]thiophen-4-ylpiperazin-1-yl)butoxy]-2-oxo-3,4-dihydro-2H-quinolin-1-ylmethyl ester] the figure was > 100 mg/mL; with `CCCCCCCCCCNC(=O)OCN1C(=O)CCc2ccc(OCCCCN3CCN(c4cccc5sccc45)CC3)cc21` [Example 17, N-decylcarbamic acid 7-[4-(4-benzo[b]thiophen-4-ylpiperazin-1-yl)butoxy]-2-oxo-3,4-dihydro-2H-quinolin-1-ylmethyl ester], > 100 mg/mL; with `CC(C)(C)C(=O)OCn1c(=O)ccc2ccc(OCCCCN3CCN(c4cccc5sccc45)CC3)cc21` [Example 18, 2,2-dimethylpropionic acid 7-[4-(4-benzo[b]thiophen-4-ylpiperazin-1-yl)butoxy]-2-oxo-2H-quinolin-1-ylmethyl ester], > 100 mg/mL.
As to `CCCC(=O)OCN1C(=O)CCc2ccc(OCCCCN3CCN(c4cccc5sccc45)CC3)cc21` [Example 19, butyric acid 7-[4-(4-benzo[b]thiophen-4-ylpiperazin-1-yl)butoxy]-2-oxo-3,4-dihydro-2H-quinolin-1-ylmethyl ester], the solubility is > 100 mg/mL.
Turning to `CCCC(=O)OCn1c(=O)ccc2ccc(OCCCCN3CCN(c4cccc5sccc45)CC3)cc21` [Example 20, butyric acid 7-[4-(4-benzo[b]thiophen-4-ylpiperazin-1-yl)butoxy]-2-oxo-2H-quinolin-1-ylmethyl ester], the solubility was > 100 mg/mL.
On the same count and under the same terms, in the case of `CCCCCCCCCCCC(=O)OCN1C(=O)CCc2ccc(OCCCCN3CCN(c4cccc5sccc45)CC3)cc21` [Example 21, dodecanoic acid 7-[4-(4-benzo[b]thiophen-4-ylpiperazin-1-yl)butoxy]-2-oxo-3,4-dihydro-2H-quinolin-1-ylmethyl ester] it was > 100 mg/mL; in that of `CCCCCCCCCCCC(=O)OCn1c(=O)ccc2ccc(OCCCCN3CCN(c4cccc5sccc45)CC3)cc21` [Example 22, dodecanoic acid 7-[4-(4-benzo[b]thiophen-4-ylpiperazin-1-yl)butoxy]-2-oxo-2H-quinolin-1-ylmethyl ester], > 100 mg/mL.
Same read-out and setting: in the case of `CCCCCCCCCCCCCCCC(=O)OCN1C(=O)CCc2ccc(OCCCCN3CCN(c4cccc5sccc45)CC3)cc21` [Example 23, hexadecanoic acid 7-[4-(4-benzo[b]thiophen-4-ylpiperazin-1-yl)butoxy]-2-oxo-3,4-dihydro-2H-quinolin-1-ylmethyl ester] it was > 100 mg/mL.
With `CCCCCCCC(=O)OCN1C(=O)CCc2ccc(OCCCCN3CCN(c4cccc5sccc45)CC3)cc21` [Example 24, octanoic acid 7-[4-(4-benzo[b]thiophen-4-ylpiperazin-1-yl)butoxy]-2-oxo-3,4-dihydro-2H-quinolin-1-ylmethyl ester], the solubility was > 100 mg/mL.
On the same count and under the same terms, with `CCCCNC(=O)OCN1C(=O)CCc2ccc(OCCCCN3CCN(c4cccc5sccc45)CC3)cc21` [Example 27, N-butylcarbamic acid 7-[4-(4-benzo[b]thiophen-4-ylpiperazin-1-yl)butoxy]-2-oxo-3,4-dihydro-2H-quinolin-1-ylmethyl ester] the figure was > 100 mg/mL; with `CCCCN(CCCC)C(=O)OCN1C(=O)CCc2ccc(OCCCCN3CCN(c4cccc5sccc45)CC3)cc21` [Example 28, N,N-dibutylcarbamic acid 7-[4-(4-benzo[b]thiophen-4-ylpiperazin-1-yl)butoxy]-2-oxo-3,4-dihydro-2H-quinolin-1-ylmethyl ester], > 100 mg/mL; with `O=C(NCC1CCCCC1)OCN1C(=O)CCc2ccc(OCCCCN3CCN(c4cccc5sccc45)CC3)cc21` [Example 29, N-cyclohexylmethylcarbamic acid 7-[4-(4-benzo[b]thiophen-4-ylpiperazin-1-yl)butoxy]-2-oxo-3,4-dihydro-2H-quinolin-1-ylmethyl ester], > 100 mg/mL.
The same measure, in the same setting: in the case of `CCCCCCCC(=O)OCn1c(=O)ccc2ccc(OCCCCN3CCN(c4cccc5sccc45)CC3)cc21` [Example 30, octanoic acid 7-[4-(4-benzo[b]thiophen-4-ylpiperazin-1-yl)butoxy]-2-oxo-2H-quinolin-1-ylmethyl ester] it was > 100 mg/mL; in that of `CCCCCCCCCCCCCCCCCCCC(=O)OCN1C(=O)CCc2ccc(OCCCCN3CCN(c4cccc5sccc45)CC3)cc21` [Example 31, icosanoic acid 7-[4-(4-benzo[b]thiophen-4-ylpiperazin-1-yl)butoxy]-2-oxo-3,4-dihydro-2H-quinolin-1-ylmethyl ester], > 100 mg/mL.
On the same count and under the same terms, with `O=C(OCn1c(=O)ccc2ccc(OCCCCN3CCN(c4cccc5sccc45)CC3)cc21)C1CCCCC1` [Example 32, cyclohexanecarboxylic acid 7-[4-(4-benzo[b]thiophen-4-ylpiperazin-1-yl)butoxy]-2-oxo-2H-quinolin-1-ylmethyl ester] the figure was > 100 mg/mL.
`CCCCCCCC/C=C\CCCCCCCC(=O)OCN1C(=O)CCc2ccc(OCCCCN3CCN(c4cccc5sccc45)CC3)cc21` [Example 33, (Z)-octadec-9-enoic acid 7-[4-(4-benzo[b]thiophen-4-ylpiperazin-1-yl)butoxy]-2-oxo-3,4-dihydro-2H-quinolin-1-ylmethyl ester]: the solubility was > 100 mg/mL.
On the same count and under the same terms, in the case of `CCCCCCCCCCNC(=O)OCn1c(=O)ccc2ccc(OCCCCN3CCN(c4cccc5sccc45)CC3)cc21` [Example 34, N-decylcarbamic acid 7-[4-(4-benzo[b]thiophen-4-ylpiperazin-1-yl)butoxy]-2-oxo-2H-quinolin-1-ylmethyl ester] it was > 100 mg/mL; in that of `CCCCNC(=O)OCn1c(=O)ccc2ccc(OCCCCN3CCN(c4cccc5sccc45)CC3)cc21` [Example 35, N-butylcarbamic acid 7-[4-(4-benzo[b]thiophen-4-ylpiperazin-1-yl)butoxy]-2-oxo-2H-quinolin-1-ylmethyl ester], > 100 mg/mL.
The same measure, in the same setting: in the case of `CCCCN(C)C(=O)OCn1c(=O)ccc2ccc(OCCCCN3CCN(c4cccc5sccc45)CC3)cc21` [Example 36, N-butyl-N-methylcarbamic acid 7-[4-(4-benzo[b]thiophen-4-ylpiperazin-1-yl)butoxy]-2-oxo-2H-quinolin-1-ylmethyl ester] it was > 100 mg/mL; in that of `O=C(OCn1c(=O)ccc2ccc(OCCCCN3CCN(c4cccc5sccc45)CC3)cc21)C1CCCC1` [Example 37, cyclopentanecarboxylic acid 7-[4-(4-benzo[b]thiophen-4-ylpiperazin-1-yl)butoxy]-2-oxo-2H-quinolin-1-ylmethyl ester], > 100 mg/mL.
The same measure, in the same setting: with `CCCCCCCCCCCCCCCCCCNC(=O)OCn1c(=O)ccc2ccc(OCCCCN3CCN(c4cccc5sccc45)CC3)cc21` [Example 38, N-octadecylcarbamic acid 7-[4-(4-benzo[b]thiophen-4-ylpiperazin-3-yl)butoxy]-2-oxo-2H-quinolin-1-ylmethyl ester] the figure was > 100 mg/mL.
In the case of `CCCCCCCC/C=C\CCCCCCCC(=O)OCn1c(=O)ccc2ccc(OCCCCN3CCN(c4cccc5sccc45)CC3)cc21` [Example 39, (Z)-octadec-9-enoic acid 7-[4-(4-benzo[b]thiophen-4-ylpiperazin-1-yl)butoxy]-2-oxo-2H-quinolin-1-ylmethyl ester], the solubility was > 100 mg/mL.
On the same count and under the same terms, in the case of `CCCCCC(CCCCC)C(=O)OCN1C(=O)CCc2ccc(OCCCCN3CCN(c4cccc5sccc45)CC3)cc21` [Example 40, 2-pentylheptanoic acid 7-[4-(4-benzo[b]thiophen-4-ylpiperazin-1-yl)butoxy]-2-oxo-3,4-dihydro-2H-quinolin-1-ylmethyl ester] it was > 100 mg/mL.

The data set is the same for the next values; noted with them: sesame oil, oil or lipid, thermodynamic from solid.
As to `CCCCCCCCCCNC(=O)OCN1C(=O)CCc2ccc(OCCCCN3CCN(c4cccc5sccc45)CC3)cc21` [Example 17, N-decylcarbamic acid 7-[4-(4-benzo[b]thiophen-4-ylpiperazin-1-yl)butoxy]-2-oxo-3,4-dihydro-2H-quinolin-1-ylmethyl ester], the solubility was > 100 mg/mL.
The same measure, in the same setting: in the case of `CCCCCCCCCCCC(=O)OCN1C(=O)CCc2ccc(OCCCCN3CCN(c4cccc5sccc45)CC3)cc21` [Example 21, dodecanoic acid 7-[4-(4-benzo[b]thiophen-4-ylpiperazin-1-yl)butoxy]-2-oxo-3,4-dihydro-2H-quinolin-1-ylmethyl ester] it was > 100 mg/mL; in that of `CCCCN(CCCC)C(=O)OCN1C(=O)CCc2ccc(OCCCCN3CCN(c4cccc5sccc45)CC3)cc21` [Example 28, N,N-dibutylcarbamic acid 7-[4-(4-benzo[b]thiophen-4-ylpiperazin-1-yl)butoxy]-2-oxo-3,4-dihydro-2H-quinolin-1-ylmethyl ester], > 100 mg/mL.

The term solubility denotes how much of the substance goes into solution per volume. High values mean a readily soluble substance, low ones a poorly soluble substance.
